The values that follow come from article PMC6160931, “Processing Impact on Performance of Solid Dispersions” (Pharmaceutics, 2018).

Converted amounts (≈) assume the structure as drawn. Structures can show the parent of a compound that is named as a salt. Where two headings read alike, the source gives them in different places.

What all share (type): physicochemical
A short description of data set [1]: Log P (free base). The text has this: (§1) Table 1 Physical/chemical properties of MK-A.
A short description of data set [2]: Solid-state chemical/physical stability of drug forms. The conditions noted are these: chemical and physical.
Source text: as §1

Data set [3] can be described thus: Solubility in H2O, SGF and FaSSIF.
Source text: as §1

Data set [4] can be described thus: Chemical stability under accelerated conditions (% area). The method, then:
The stability of various formulations of MK-A was evaluated under accelerated conditions (Table 4). Levels of potency reduction right after the solid dispersion preparation were 1.7% and 4.6% for spray drying and hot melt extrusion, respectively. The higher potency reduction in HME was attributed to the higher processing temperature of the HME process (~140 °C) at which thermal degradation of the drug occurred. The potency of the amorphous form of active was further reduced after 2 weeks storage at 40 °C/75% relative humidity (RH) conditions in closed glass vials by up to as much as 8.5% loss of potency in the solid dispersion via HME.

The mark [5] stands for this setting: Fasted Simulated Small Intestine Fluid (FaSSIF).

What is called logP is a log measure of how a compound divides between an organic and an aqueous phase. Read a low logP as a more hydrophilic compound. For orientation: solubility means how much of the substance goes into solution per volume. Compound `CS[C@@]1(C(=O)Nc2ccc3[nH]nc(-c4ccc(OC(C)C)nc4)c3c2)CCN(CC(=O)N2CC=C(c3ccc(-c4ncn(C)n4)cc3)CC2)C1` [MK-A HCl salt] gave a logP in data set [1] of 4.5. In addition, the Stability entry in data set [2] was “Chemically stable in the solid-state; Physically stable at various temperatures and humidity conditions but sensitive to mechanical stress”. Further, the solubility was 21 µg/mL in data set [3] (setting [5]); 525 µg/mL in data set [3] (simulated gastric fluid (SGF), simulated gastric fluid, Simulated Gastric Fluid (SGF), read-out: Solubility); 661 µg/mL in data set [3] (water, pH 3.5, water, H2O (pH = 3.5), read-out: Solubility).
As for `CS[C@@]1(C(=O)Nc2ccc3[nH]nc(-c4ccc(OC(C)C)nc4)c3c2)CCN(CC(=O)N2CC=C(c3ccc(-c4ncn(C)n4)cc3)CC2)C1` [MK-A free base], the “2 Weeks at 40 °C/75% RH Closed (% Area)” value in data set [4] (2 weeks, 40 °C/75% RH, closed glass vials) is 98.8 % Area. For the same compound, the “Initial (% Area)” value in data set [4] (initial, after preparation) amounted to 98.8 % Area. In addition, in data set [1], the “Log P (free base)” value was determined as 4.5. In data set [2], the Stability result is “Chemically and physically stable”. Further, the solubility in data set [3] (setting [5]) is 2 µg/mL (≈ 2.89 µM); in data set [3] (Simulated Gastric Fluid (SGF)), 907 µg/mL (≈ 1310 µM); in data set [3] (water, pH 7.3, water, H2O (pH = 7.3), read-out: Solubility), 0.3 µg/mL (≈ 0.434 µM).
